# According to paper PMC3538727, “Design, Synthesis and Biological Evaluation of Novel Piperazine Derivatives as CCR5 Antagonists” (PLoS ONE, 2013):
# Entries after “also recorded” stand apart in the source; their conditions may differ. Where two headings read alike, the source gives them in different places.
# Experiments:
# CCR5 = target: T1, CCR5 (Homo sapiens, UniProt P51681); assay: Cell-cell fusion assay (CCF assay, CCR5-mediated fusion); format: cell-based; settings: for inhibition at 10 µM: CCR5, read-out: inhibition rate (10 µM), CCR5 fusion activity; for inhibition at 10 µM / IC50 / inhibition rate (10 µM), CCR5 fusion activity: mean of at least two experiments, DMSO as negative control; for fold loss of CCR5 fusion potency in comparison to 9e: relative to 9e
# T1 construct: expressed in transfected cells
# T1 sequence (P51681 whole entry, the tested form may be a part): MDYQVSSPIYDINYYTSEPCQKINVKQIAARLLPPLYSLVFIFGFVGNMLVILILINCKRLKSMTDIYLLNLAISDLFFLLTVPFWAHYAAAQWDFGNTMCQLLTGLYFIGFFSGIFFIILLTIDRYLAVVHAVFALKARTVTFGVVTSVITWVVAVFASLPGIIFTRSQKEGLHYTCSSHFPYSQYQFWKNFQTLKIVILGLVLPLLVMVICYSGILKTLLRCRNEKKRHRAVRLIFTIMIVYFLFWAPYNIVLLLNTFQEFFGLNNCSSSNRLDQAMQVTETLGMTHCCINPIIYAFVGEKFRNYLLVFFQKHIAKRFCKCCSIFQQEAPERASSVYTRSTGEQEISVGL
# Text: A total of 21 novel piperazine derivatives 9a–h, 13a–d, 17, and 23a–h were screened for their inhibitory activity against cell-cell fusion between target cells expressing CD4/CCR5 and effector cells expressing the envelope protein of HIV-1, gp-120 (fusion assay).
# Effector cell line: This cell line express HIV envelope protein gp160 and chimera protein Rn-Dn. Rn-Dn is consist of the N terminal of renilla luciferase and the N terminal of DnaE intein from Anacystis nidulans R2 PCC7942.
# Target cell line: This cell line express chemokine receptor 5(CCR5), CD4 protein and chimera protein Dc-Rc. Dc-Rc is consist of the C teminal of renilla luceferase and the C teminal of NnaE intein from Anacystis nidulans R2 PCC7942.
# The cell-cell fusion assay was performed as described previously.The effector cells were plated in 24 well white culture plates at 7.5×10^4 cell per well in DMEM supplemented with 10% FBS, 800 µg/mL G418. The target cells in the growth medium were then added to the plates at 7.5×10^4 cells/50 µL/well and incubated for 5 hours. At the end of coculture, 70 µL of renilla luceferase assay lysis was added into each well, and the cultures were gently shaken for 15 min. At the same time, add 20 µl of Renilla Luciferase Assay Reagent to the luminometer tube. Add 20 µl of cell lysate to the tube. Mix quickly by flicking the tube for 1 second. Place the tube in FB12 luminometer and initiate measurement. Luminescence was integrated over 1 second with a 2-second delay. When small molecule compounds needed to be added to the CCF assay system, the compounds were diluted manually in DMSO. Then, 10 µL of the diluted compounds was added to the effector cells just before the addition of target cells, thus making the final concentration of DMSO in the coculture 0.5%.
# [1] = test system: recombinant HIV-1 virus pseudotyped with the envelope proteins of the CCR5-tropic virus; assay: microbe, parasite or virus in culture; format: cell-based; settings: for inhibition at 10 µM: Human immunodeficiency virus 1, SUP-T1, read-out: inhibition rate (10 µM), antiviral activity
# Experimental: Fluorophenyl analogs 9e–g, phenyl, chlorophenyl, and trifluorophenyl analog 23a–c, and cyclohexyl analog 23 h were evaluated for their anti-HIV activity using a recombinant HIV-1 virus pseudotyped with the envelope proteins of the CCR5-tropic virus (HIV-1 single cycle antiviral assay). For overall estimation of the therapeutic potential of these novel CCR5 antagonists, maraviroc was used as a positive control.
# HIV-1 proviral indicator construct pNL-Luc-E- contains a full-length HIV-1 genome, in which env was replaced by firefly Luciferase coding sequence. pENV-Ad8 expresses R5-tropic envelope (AD8).
# Single-cycle HIV-1 replication assays were performed as described previously. In brief, 4×10^5 293T cells were co-transfected with 0.4 µg of pNL-Luc-E- and 0.4 µg of pENV-R5. After 48h, the supernatant containing pseudovirion was harvested by filtration through a 0.45 µm filter and the amount of viral capsid protein was measured by p24 antigen capture ELISA (Biomerieux). The resultant supernatant (10 µL) was used to infect SupT1 cells (1×10^5) in 96-well plates in the presence of testing compound at the concentration indicated. The SupT1 cells were lysed 48h post-infection and firefly luciferase activities were determined using a firefly Luciferase Assay System (Promega). Values were normalized to the control group treated with DMSO, and represented relative infectivity of each sample testing.
# [2] = mean of two experiments, DMSO as negative control
inhibition at 10 µM (CCR5),melting point,Compound,IC50 (CCR5),also measured
47%,165 to 167 °C,Cc1ccc(N2CCN(CCC(NC(=O)c3ccccc3)c3ccccc3)CC2)cc1 (centres unmarked) [Compound 9a],,
35%,171 to 173 °C,Cc1ccc(N2CCN(CCC(NC(=O)c3ccc(F)cc3)c3ccccc3)CC2)cc1 (centres unmarked) [Compound 9b],,
41%,157 to 159 °C,O=C(NC(CCN1CCN(c2ccc(F)cc2)CC1)c1ccccc1)c1ccc(F)cc1 (centres unmarked) [Compound 9c],,
26%,152 to 154 °C,O=C(NC(CCN1CCN(c2ccc(F)cc2)CC1)c1ccccc1)c1ccccc1 (centres unmarked) [Compound 9d],,
20%,,NC(=O)c1ccc(N2CCN(CCC(NC(=O)c3ccc(F)cc3)c3ccccc3)CC2)cc1 (centres unmarked) [Compound 9h],,
,115 to 119 °C,N#CCc1ccc(N2CCN(CCC(NC(=O)c3ccc(F)cc3)c3ccccc3)CC2)cc1 (centres unmarked) [Compound 13a],,"inhibition rate (10 µM), CCR5 fusion activity (CCR5): inactive"
22%,80 to 84 °C,N#Cc1ccc(C(=O)N2CCN(CCC(NC(=O)c3ccc(F)cc3)c3ccccc3)CC2)cc1 (centres unmarked) [Compound 13b],,
,83 to 87 °C,N#Cc1ccc(CN2CCN(CCC(NC(=O)c3ccc(F)cc3)c3ccccc3)CC2)cc1 (centres unmarked) [Compound 13c],,"inhibition rate (10 µM), CCR5 fusion activity (CCR5): inactive"
25%,98 to 102 °C,"N#Cc1ccc(N2CCN(C(=O)CC(NC(=O)c3ccc(F)cc3)c3ccccc3)CC2)cc1 (centres unmarked) [Compound 13d, N-(3-(4-(4-cyanophenyl)piperazin-1-yl)-3-oxo-1-phenylpropyl)-4-fluoro-benzamide]",,
,82 to 84 °C,"N#Cc1ccc(N2CCN(CCCN(C(=O)c3ccc(F)cc3)c3ccccc3)CC2)cc1 [Compound 17, N-(3-(4-(4-cyanophenyl)piperazin-1-yl)propyl)-4-fluoro-N-phenylbenzamide]",,"inhibition rate (10 µM), CCR5 fusion activity (CCR5): inactive"
20%,155 to 158 °C,CC(C)c1ccc(C(=O)NC(CCN2CCN(c3ccc(C#N)cc3)CC2)c2ccccc2)cc1 (centres unmarked) [Compound 23d],,
,100 to 105 °C,CC(=O)N1CCC(C(=O)NC(CCN2CCN(c3ccc(C#N)cc3)CC2)c2ccccc2)CC1 (centres unmarked) [Compound 23e],,"inhibition rate (10 µM), CCR5 fusion activity (CCR5): complete loss in fusion activity; also recorded: inactive"
15%,121 to 124 °C,N#Cc1ccc(N2CCN(CCC(NC(=O)C3CCN(C(=O)c4ccccc4)CC3)c3ccccc3)CC2)cc1 (centres unmarked) [Compound 23f],,
,132 to 136 °C,N#Cc1ccc(N2CCN(CCC(NC(=O)c3ccco3)c3ccccc3)CC2)cc1 (centres unmarked) [Compound 23g],,"inhibition rate (10 µM), CCR5 fusion activity (CCR5): inactive"
,,N#Cc1ccc(N2CCN(CCC(NC(=O)C3CCCCC3)c3ccccc3)CC2)cc1 (centres unmarked) [Compound 23h],6.29 µM,"IC50 ([1]; Human immunodeficiency virus 1, SUP-T1, read-out: IC50 (µM), antiviral activity): 0.44 µM; inhibition at 10 µM [1]: 66.5%"
,,maraviroc [reference compound],,"inhibition rate (10 µM), antiviral activity [1, 2]: 96.8%; IC50 ([1]; read-out: IC50 (µM), antiviral activity, mean of two experiments, DMSO as negative control): 0.0011 µM"

Compound,inhibition at 10 µM (CCR5),melting point,IC50 (CCR5),also measured
N#Cc1ccc(N2CCN(CCC(NC(=O)c3ccc(F)cc3)c3ccccc3)CC2)cc1 (centres unmarked) [Compound 9e],,160 to 162 °C,0.64 µM,"inhibition rate (10 µM), antiviral activity [1, 2]: weak anti-HIV activity; inhibition at 10 µM [1]: 23.8%"
N#Cc1ccc(N2CCN(CCC(NC(=O)c3ccc(F)cc3)c3ccc(Cl)cc3)CC2)cc1 (centres unmarked) [Compound 9f],,121 to 123 °C,3.7 µM,"fold loss of CCR5 fusion potency in comparison to 9e (CCR5): 5 fold; inhibition rate (10 µM), antiviral activity [1, 2]: inactive"
N#Cc1ccc(N2CCN(CCC(NC(=O)c3ccc(F)cc3)c3ccc(Cl)c(Cl)c3)CC2)cc1 (centres unmarked) [Compound 9g],,85 to 88 °C,10 µM,fold loss of CCR5 fusion potency in comparison to 9e (CCR5): more than 15 fold; inhibition at 10 µM [1]: 2.9%
N#Cc1ccc(N2CCN(CCC(NC(=O)c3ccccc3)c3ccccc3)CC2)cc1 (centres unmarked) [Compound 23a],,152 to 155 °C,2.44 µM,fold loss of CCR5 fusion potency in comparison to 9e (CCR5): 4 fold; inhibition at 10 µM [1]: 28.9%
N#Cc1ccc(N2CCN(CCC(NC(=O)c3ccc(Cl)cc3)c3ccccc3)CC2)cc1 (centres unmarked) [Compound 23b],,143 to 145 °C,2.87 µM,fold loss of CCR5 fusion potency in comparison to 9e (CCR5): 5 fold; inhibition at 10 µM [1]: 29.9%
N#Cc1ccc(N2CCN(CCC(NC(=O)c3ccc(C(F)(F)F)cc3)c3ccccc3)CC2)cc1 (centres unmarked) [Compound 23c],,158 to 160 °C,10 µM,fold loss of CCR5 fusion potency in comparison to 9e (CCR5): 15 fold; inhibition at 10 µM [1]: 24.6%
